Data as given in patent publication US5646310A, “N-(2-cyanoethyl)-6-fluoroalkyl-2h-1-benzopyran derivatives” (Chugai Seiyaku Kabushiki Kaisha, priority 1993, dated 1997).

Test system: thoracic aorta
Experiment: Extracted rat aorta, relaxation of KCl-induced constriction relative to maximum relaxation (Test Example 2)
Assay type: cell-based, male Sprague Dawley rat
Conditions: relaxation of continuous constriction caused by 30 mM potassium chloride, rat aorta ring, 2 ml organ bath; read-out: 50% inhibitory concentration (EC50) relative to the maximum relaxation effect of the compound
Procedure: (§1) A thoracic aorta was extracted from male Sprague Dawley rat (450-600 g) to prepare a ring-formed sample having a width of 2 mm. The resulting sample was suspended at a tension of 2 g in a 2 ml organ bath containing Krebs-Henseleit solution, and a gas composed of 95% oxygen and 5% carbon dioxide was passed therethrough. A constriction reaction of the sample was recorded isometrically by a FD pick-up. After equilibration for 1 to 1.5 hour, 30 mM potassium chloride was added in order to constrict the tissue, and an activity of the test compound for relaxing the continuous constriction caused by potassium chloride was evaluated by determining a 50% inhibitory concentration (EC50) of the compound relative to the maximum relaxation effect of the compound.

Row | SMILES | EC50
1 | CC1(C)Oc2ccc(C#N)cc2C(N2CCCC2=O)C1O (stereo not shown) [Cromakalim, cromakalim, reference compound] | 170000 pM
2 | N#CCCNC(=S)C1=CC(CF)(CF)Oc2ccc(C(F)(F)C(F)(F)F)cc21 [Compound 4, N-(2-cyanoethyl)-6-pentafluoroethyl-2,2-bis-fluoromethyl-2H-1-benzopyran-4-carbothioamide] | 19 pM
3 | N#CCCNC(=S)C1=CC(CF)(CF)Oc2ccc(C(F)(F)F)cc21 [Compound 3, N-(2-cyanoethyl)-2,2-bisfluoromethyl-6-tri-fluoromethyl-2H-1-benzopyran-4-carbothioamide] | 21 pM

Test system: thoracic aorta
Experiment: Extracted rat aorta, relaxation of KCl-induced constriction (Test Example 1)
Assay type: cell-based, male Sprague Dawley rat
Conditions: relaxation of continuous constriction caused by 30 mM potassium chloride, rat aorta ring; read-out: 50% inhibitory concentration (IC50)
Procedure: as §1, with “an” for “a 2 ml”, “(IC50). As comparative compounds, N-(2-cyanoethyl)-2,2-dimethyl-6-nitro-2H-1-benzopyran-4-carbamide (Compound A) disclosed in WO 92/02514 and 6-trifluoromethyl--N-methyl-2,2-dimethyl-2H-1-benzopyran-4-carbothioamide (Compound B) disclosed in WO 92/14439 were used.” for “(EC50) of the compound relative to the maximum relaxation effect of the compound.”

Row | SMILES | IC50
4 | CNC(=S)C1=CC(C)(C)Oc2ccc(C(F)(F)F)cc21 [Compound B, 6-trifluoromethyl--N-methyl-2,2-dimethyl-2H-1-benzopyran-4-carbothioamide, reference compound] | 1900 pM
5 | CC1(C)C=C(C(=O)NCCC#N)c2cc(C(F)(F)C(F)(F)F)ccc2O1 [Compound 1, N-(2-cyanoethyl)-6-pentafluoroethyl-2,2-dimethyl-2H-1-benzopyran-4-carbamide] | 240 pM
6 | CC1(C)C=C(C(=S)NCCC#N)c2cc(C(F)(F)C(F)(F)F)ccc2O1 [Compound 2, N-(2-cyanoethyl)-6-pentafluoroethyl-2,2-dimethyl-2H-1-benzopyran-4-carbothioamide] | 880 pM
7 | CC1(C)C=C(C(=O)NCCC#N)c2cc([N+](=O)[O-])ccc2O1 [Compound A, N-(2-cyanoethyl)-2,2-dimethyl-6-nitro-2H-1-benzopyran-4-carbamide, reference compound] | 2800 pM
